# Values of other authors as cited in US20050170064A1, “Plant sterol-containing food, and method for preparing the same” (Eugene Science Inc., priority 2002, published 2005).
# Tested on: LDL-C level
# Settings: applied form in an oil phase (margarine)
substance,measurement,value
sitostanol fatty acid ester,Reduction of the LDL-C level,≤ 16%
